In patent publication US20250345387A1, “CORONAVIRUS THERAPEUTICS AND TREATMENT METHODS” (priority 2020, published 2025):

B1: human recombinant Ang1: Human recombinant angiopoietin 1, positive control for Tie2 and MAPK activation (protein)
chain: SNQRRSPENSGRRYNRIQHGQCAYTFILPEHDGNCRESTTDQYNTNALQRDAPHVEPDFSSQKLQHLEHVMENYTQWLQKLENYIVENMKSEMAQIQQNAVQNHTATMLEIGTSLLSQTAEQTRKLTDVETQVLNQTSRLEIQLLENSLSTYKLEKQLLQQTNEILKIHEKNSLLEHKILEMEGKHKEELDTLKEEKENLQGLVTRQTYIIQELEKQLNRATTNNSVLQKQQLELMDTVHNLVNLCTKEGVLLKGGKREEEKPFRDCADVYQAGFNKSGIYTIYINNMPEPKKVFCNMDVNGGGWTVIQHREDGSLDFQRGWKEYKMGFGNPSGEYWLGNEFIFAITSQRQYMLRIELMDWEGNRAYSQYDRFHIGNEKQNYRLYLKGHTGTAGKQSSLILHGADFSTKDADNDNCMCKCALMLTGGWWFDACGPSNLNGMFYTAGQNHGKLNGIKWHYFKGPSYSLRSTTMMIRPLDF

What was measured:
[1] = tested on: Influenza A virus HKx31 (H3N2); conditions: 100 ng/mouse/day; Sugiyama M G et al, 2015; cited from earlier work
MAPK (Erk2) = experiment: MAPK phosphorylation ELISA in HUVEC; assay type: cell-based, human; conditions: HUVEC stimulation
Method: HUVECs were cultured as above. Lyates were prepared in (1 mM EDTA, 0.5% Triton X-100, 6M urea, 5 mM NaF, 100 uM PMSF, 25 mM sodium pyrophosphate, 1 mM sodium orthovanadate, pH 7.2-7.4, 1× cOmplete™ mini EDTA-free protease inhibitor). BCA protein concentration kit was used to measure protein concentration of each lysate as per manufacturer's instructions (Thermo Scientific). Samples were subjected to ELISAs that measured phosphorylated MAPK and total MAPK levels according to the manufacturer's protocol (R&D Systems). 20 μg or 10 μg of protein from each sample was loaded in duplicate for phosphorylated MAPK and total MAPK readings respectively. Phosphorylated MAPK:total MAPK ratios were determined for each sample. The level of MAPK phosphorylation for all treatment groups were then normalized to that of the no treatment group (NT, EBM only) in each experiment.

[2] = tested on: Influenza A virus HKx31 (H3N2); assay type: in vivo, C57BL/6J mice; conditions: mouse, in vivo
[3] = tested on: histamine-induced vascular leakage; experiment: Cutaneous histamine challenge, Evans blue dye extravasation; assay type: in vivo, male FVB mice
From the text: 10-week old male FVB mice were purchased from Jackson Laboratories. Mice were housed in a Vivarium on a standard light:dark cycle and were given free access to food and water. On day 0 mice were anesthetized with isoflurane and the entire dorsal area was shaved with an electric shaver. Residual hair was removed via application of depilatory cream. Residual cream was removed with sterile gauze and water. […] Immediately following Evans blue dye administration, and while still under anesthesia, a single PBS injection (dorsal, intradermal, 50 ul) and three equally spaced histamine injections (dorsal, intradermal, 1.25 ug contained in 50 ul) were applied. Once the intradermal injections were complete, the mice were removed from anesthesia and were placed back into their housing cages for 25 minutes.
Cardiac transperfusion After 25 minutes of exposure to histamine the mice were placed under anesthesia with an appropriate volume of 2.5% avertin (100 ul/10 g body weight via intraperitoneal injection). Once a deep plane of anesthesia was produced the mice were place and secured in a supine position, the chest was surgically opened, the heart was exposed and a catheter terminating in a 23 gauge needle was inserted into the left ventricle. Once the catheter was securely in place, a cut in the right atria was performed and 25 ml of cold PBS was delivered, via the catheter at 100 mmHg to flush out all intravascular Evans blue dye. Once a mouse was effectively perfused the dorsal skin was surgically removed. Four, 12 mm skin biopsies were collected (1PBS, 3 histamine) for each mouse using a standardized skin punch. In all cases, the biopsy that received PBS served as a baseline control for that individual mouse.
Quantification of Evans blue dye extravassation Skin biopsies were placed in labelled tubes and placed in a 60 degree Celsius oven for 16 hrs to removed all moisture. […] An Evans blue dye standard curve encompassing high and low experimental data points was constructed such that the amount of Evans blue dye extravassation (ug/g of skin) could be calculated.

Tie2 receptor [4] = experiment: Tie2 phosphorylation ELISA in primary canine aortic endothelial cells; assay type: cell-based; conditions: positive control
Method: Canine primary aortic endothelial cells (Cell Biologics) were grown in Complete canine endothelial cell medium/w kit (Cell Biologics) in 20% O2, 5% CO2 and 37° C. humidified chamber and split 1:3 once reaching 80-90% confluency. Tie2 activation studies performed on primary cynomolgus monkey glomerular endothelial cells were performed according to approaches detailed above for the rat primary glomerular endothelial cell studies.

Tie2 receptor [5] = biological target: T1, Tie2 receptor (Rattus norvegicus, UniProt A0A8I5ZW61); experiment: Tie2 phosphorylation ELISA in primary rat glomerular endothelial cells; assay type: cell-based; conditions: positive control
T1 construct: host or cells: primary rat glomerular endothelial cells
T1 sequence (A0A8I5ZW61 20-1121): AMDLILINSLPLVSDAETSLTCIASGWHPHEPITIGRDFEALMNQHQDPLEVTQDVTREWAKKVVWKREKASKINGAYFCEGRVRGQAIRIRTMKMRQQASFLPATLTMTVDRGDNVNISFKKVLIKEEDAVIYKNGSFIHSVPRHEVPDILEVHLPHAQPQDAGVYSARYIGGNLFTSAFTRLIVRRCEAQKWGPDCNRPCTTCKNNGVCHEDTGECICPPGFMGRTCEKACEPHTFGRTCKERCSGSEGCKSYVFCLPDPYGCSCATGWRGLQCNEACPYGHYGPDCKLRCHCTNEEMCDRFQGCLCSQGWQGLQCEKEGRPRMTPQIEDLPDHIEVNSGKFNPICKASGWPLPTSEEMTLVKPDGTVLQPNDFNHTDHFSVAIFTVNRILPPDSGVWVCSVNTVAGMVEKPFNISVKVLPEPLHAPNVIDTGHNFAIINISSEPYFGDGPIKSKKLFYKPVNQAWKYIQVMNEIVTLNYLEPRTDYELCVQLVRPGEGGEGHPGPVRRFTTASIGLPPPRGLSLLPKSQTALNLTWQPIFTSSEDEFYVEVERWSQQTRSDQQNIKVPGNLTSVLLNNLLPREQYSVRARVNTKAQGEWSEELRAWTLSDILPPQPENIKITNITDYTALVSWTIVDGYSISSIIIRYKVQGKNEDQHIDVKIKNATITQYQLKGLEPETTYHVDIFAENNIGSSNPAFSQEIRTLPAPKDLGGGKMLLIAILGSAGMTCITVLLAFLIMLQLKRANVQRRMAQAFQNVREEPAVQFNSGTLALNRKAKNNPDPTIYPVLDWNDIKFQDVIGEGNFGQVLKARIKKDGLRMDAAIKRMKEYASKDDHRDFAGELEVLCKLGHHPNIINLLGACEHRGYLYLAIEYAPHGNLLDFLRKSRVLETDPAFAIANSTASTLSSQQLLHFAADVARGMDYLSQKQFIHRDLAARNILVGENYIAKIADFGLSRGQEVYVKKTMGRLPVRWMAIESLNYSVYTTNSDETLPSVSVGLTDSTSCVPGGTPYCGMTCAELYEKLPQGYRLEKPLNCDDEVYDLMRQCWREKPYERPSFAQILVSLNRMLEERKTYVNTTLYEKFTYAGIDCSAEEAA
Method: Rat primary glomerular endothelial cells (Cell Biologics) were grown in Complete rat endothelial cell medium/w kit (Cell Biologics) in 20% O2, 5% CO2 and 37° C. humidified chamber and split 1:3 once reaching 80-90% confluency. To examine the activation of Tie2 by MPA-Br in rat kidney glomerular endothelial cells, 95-100% confluent cells were stimulated with indicated concentrations of the test agent in serum-containing media for 15 minutes. Human Ang-1 (R&D Systems) was used as positive control. Cell lysates were collected using lysis buffer IC12 (detailed above) recommended in Human phospho-Tie-2 ELISA kit (R&D Systems), tyrosine-phosphorylated Tie2 and total Tie2 were measured using ELISA (Human phospho-Tie2 and total-Tie2 ELISA kits, R&D Systems) with substitution of capture antibody validated for rat Tie2. Mouse anti-Tie2 antibody (BD Pharmingen™) and rabbit TEK polyclonal antibody (MyBioSource) were used as capture antibody in pTie2 and total Tie2 ELISA, respectively. The level of Tie2 phosphorylation for all treatment groups was then normalized to that of the no treatment group (NT, complete rat endothelial cell medium) in each experiment.

Tie2 receptor [6] = experiment: Tie2 phosphorylation ELISA in primary cynomolgus monkey glomerular endothelial cells; assay type: cell-based; conditions: positive control
Method: Primary cynomolgus monkey glomerular endothelial cells (Cell Biologics) were cultured according to details provided above for HMVEC^tert. Tie2 activation studies performed on primary cynomolgus monkey glomerular endothelial cells were performed according to approaches detailed above for the rat primary glomerular endothelial cell studies.

Molecule	survival following infection with X31 influenza [1]	activation of MAPK (phosphorylated MAPK:total MAPK) (MAPK (Erk2))	activity score [2]	lung oxygenation (SpO2) [2]	thermal regulation (body temperature) [2]	overall survival of infected mice ([2]; ip)	reduction of histamine-induced vascular leakage compared with MPA-Br ([3]; parental Vasculotide 500 ng/mouse vs MPA-Br at equal dose or 125 ng/mouse)	vascular leakage (extravassation of Evans blue dye) vs vehicle treated mice ([3]; prophylactic IP dose one hour prior to cutaneous histamine challenge)	Tie2 phosphorylation compared to no treatment (NT) (Tie2 receptor [4])	Tie2 phosphorylation compared to no treatment (NT) (Tie2 receptor [5])	Tie2 phosphorylation compared to no treatment (NT) (Tie2 receptor [6])
parental Vasculotide: 10 kDa 4-armed polyethylene glycol with Tie2 binding peptides (CHHHRHSF) attached via maleimide; mimics Ang1 [reference compound]	ineffective at enhancing survival	downstream activation of MAPK	significantly improved	significantly improved	significantly improved	significantly improved overall survival	performed less well	significantly less vascular leakage			
B1									significant increase in baseline Tie2 phosphorylation	significant increase in baseline Tie2 phosphorylation	significant increase in baseline Tie2 phosphorylation
